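These data come from cells grown in 96-well plates and exposed to compound for 48 hours at five concentrations. At the TGI there is no net growth.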
Key:
Test in all cases: NCI anticancer screen, dose series, 48 h
786-0 renal = system: 786-0 renal
A498 renal = system: A498 renal
A549 NSCLC = system: A549 NSCLC
ACHN renal = system: ACHN renal
BT-549 breast = system: BT-549 breast
CAKI-1 renal = system: CAKI-1 renal
CCRF-CEM leukemia = system: CCRF-CEM leukemia
COLO 205 colon = system: COLO 205 colon
DU-145 prostate = system: DU-145 prostate
EKVX NSCLC = system: EKVX NSCLC
HCC-2998 colon = system: HCC-2998 colon
HCT-116 colon = system: HCT-116 colon
HCT-15 colon = system: HCT-15 colon
HL-60(TB) leukemia = system: HL-60(TB) leukemia
HOP-62 NSCLC = system: HOP-62 NSCLC
HOP-92 NSCLC = system: HOP-92 NSCLC
HS 578T breast = system: HS 578T breast
HT29 colon = system: HT29 colon
IGROV1 ovarian = system: IGROV1 ovarian
K-562 leukemia = system: K-562 leukemia
KM12 colon = system: KM12 colon
LOX IMVI melanoma = system: LOX IMVI melanoma
M14 melanoma = system: M14 melanoma
MALME-3M melanoma = system: MALME-3M melanoma
MCF7 breast = system: MCF7 breast
MDA-MB-231 breast = system: MDA-MB-231 breast
MDA-MB-435 = system: MDA-MB-435
MDA-N = system: MDA-N
MOLT-4 leukemia = system: MOLT-4 leukemia
NCI-H226 lung = system: NCI-H226 lung
NCI-H23 lung = system: NCI-H23 lung
NCI-H460 lung = system: NCI-H460 lung
NCI-H522 lung = system: NCI-H522 lung
NCI/ADR-RES ovarian = system: NCI/ADR-RES ovarian
OVCAR-3 ovarian = system: OVCAR-3 ovarian
OVCAR-4 ovarian = system: OVCAR-4 ovarian
OVCAR-5 ovarian = system: OVCAR-5 ovarian
OVCAR-8 ovarian = system: OVCAR-8 ovarian
PC-3 prostate = system: PC-3 prostate
RPMI-8226 leukemia = system: RPMI-8226 leukemia
RXF 393 renal = system: RXF 393 renal
SF-268 CNS = system: SF-268 CNS
SF-295 CNS = system: SF-295 CNS
SF-539 CNS = system: SF-539 CNS
SK-MEL-2 melanoma = system: SK-MEL-2 melanoma
SK-MEL-28 melanoma = system: SK-MEL-28 melanoma
SK-MEL-5 melanoma = system: SK-MEL-5 melanoma
SK-OV-3 ovarian = system: SK-OV-3 ovarian
SN12C renal = system: SN12C renal
SNB-19 CNS = system: SNB-19 CNS
SNB-75 CNS = system: SNB-75 CNS
SR leukemia = system: SR leukemia
SW-620 colon = system: SW-620 colon
T-47D breast = system: T-47D breast
TK-10 renal = system: TK-10 renal
U251 CNS = system: U251 CNS
UACC-257 melanoma = system: UACC-257 melanoma
UACC-62 melanoma = system: UACC-62 melanoma
UO-31 renal = system: UO-31 renal

COc1cccc(C2c3cc4c(cc3OC(C)(O)C2C)OCO4)c1O (stereo unspecified)
TGI (786-0 renal): 68.5 µM
TGI (A498 renal): 18.8 µM
TGI (A549 NSCLC): 66.6 µM
TGI (ACHN renal): 79.1 µM
TGI (BT-549 breast): 52.8 µM
TGI (CAKI-1 renal): 15.7 µM
TGI (CCRF-CEM leukemia): 33.8 µM
TGI (COLO 205 colon): 6.15 µM
TGI (DU-145 prostate): 53.9 µM
TGI (EKVX NSCLC): > 100 µM
TGI (HCC-2998 colon): 24.1 µM
TGI (HCT-116 colon): 19.7 µM
TGI (HCT-15 colon): 27.8 µM
TGI (HL-60(TB) leukemia): 28 µM
TGI (HOP-62 NSCLC): 44.4 µM
TGI (HOP-92 NSCLC): 47.3 µM
TGI (HS 578T breast): 9.94 µM
TGI (HT29 colon): 17.4 µM
TGI (IGROV1 ovarian): 69.2 µM
TGI (K-562 leukemia): 36.9 µM
TGI (KM12 colon): 36.6 µM
TGI (LOX IMVI melanoma): 50.4 µM
TGI (M14 melanoma): 24.2 µM
TGI (MALME-3M melanoma): 56.3 µM
TGI (MCF7 breast): 49.6 µM
TGI (MDA-MB-231 breast): 19.2 µM
TGI (MDA-MB-435): > 100 µM
TGI (MDA-N): 4.69 µM
TGI (MOLT-4 leukemia): > 66.2 µM
TGI (NCI-H226 lung): 18.7 µM
TGI (NCI-H23 lung): 12.4 µM
TGI (NCI-H460 lung): 30.6 µM
TGI (NCI-H522 lung): 5.6 µM
TGI (NCI/ADR-RES ovarian): 6.4 µM
TGI (OVCAR-3 ovarian): 8.48 µM
TGI (OVCAR-4 ovarian): > 96.1 µM
TGI (OVCAR-5 ovarian): > 100 µM
TGI (OVCAR-8 ovarian): 40.9 µM
TGI (PC-3 prostate): > 100 µM
TGI (RPMI-8226 leukemia): > 100 µM
TGI (RXF 393 renal): 34.1 µM
TGI (SF-268 CNS): > 100 µM
TGI (SF-295 CNS): 14.1 µM
TGI (SF-539 CNS): 8.65 µM
TGI (SK-MEL-2 melanoma): 65.3 µM
TGI (SK-MEL-28 melanoma): > 100 µM
TGI (SK-MEL-5 melanoma): 16.9 µM
TGI (SK-OV-3 ovarian): 42.8 µM
TGI (SN12C renal): 62.3 µM
TGI (SNB-19 CNS): > 100 µM
TGI (SNB-75 CNS): 30.8 µM
TGI (SR leukemia): > 42.1 µM
TGI (SW-620 colon): > 100 µM
TGI (T-47D breast): 13.1 µM
TGI (TK-10 renal): 51 µM
TGI (U251 CNS): 21.1 µM
TGI (UACC-257 melanoma): 47.1 µM
TGI (UACC-62 melanoma): 31.1 µM
TGI (UO-31 renal): 52.6 µM

Cn1c2ccccc2c(=S)c2ccccc21
TGI (786-0 renal): > 100 µM
TGI (A498 renal): > 100 µM
TGI (A549 NSCLC): > 100 µM
TGI (ACHN renal): > 100 µM
TGI (BT-549 breast): > 100 µM
TGI (CAKI-1 renal): > 100 µM
TGI (CCRF-CEM leukemia): > 100 µM
TGI (COLO 205 colon): > 100 µM
TGI (DU-145 prostate): > 100 µM
TGI (EKVX NSCLC): > 100 µM
TGI (HCC-2998 colon): > 100 µM
TGI (HCT-116 colon): > 100 µM
TGI (HCT-15 colon): > 100 µM
TGI (HOP-62 NSCLC): > 100 µM
TGI (HOP-92 NSCLC): > 100 µM
TGI (HS 578T breast): > 100 µM
TGI (HT29 colon): > 100 µM
TGI (IGROV1 ovarian): > 100 µM
TGI (K-562 leukemia): > 100 µM
TGI (KM12 colon): > 100 µM
TGI (LOX IMVI melanoma): > 100 µM
TGI (M14 melanoma): > 100 µM
TGI (MCF7 breast): > 100 µM
TGI (MDA-MB-231 breast): > 100 µM
TGI (MDA-MB-435): > 100 µM
TGI (MDA-N): > 100 µM
TGI (MOLT-4 leukemia): > 100 µM
TGI (NCI-H226 lung): > 100 µM
TGI (NCI-H23 lung): > 100 µM
TGI (NCI-H460 lung): > 100 µM
TGI (NCI-H522 lung): > 100 µM
TGI (NCI/ADR-RES ovarian): > 100 µM
TGI (OVCAR-3 ovarian): > 100 µM
TGI (OVCAR-5 ovarian): > 100 µM
TGI (OVCAR-8 ovarian): > 100 µM
TGI (PC-3 prostate): > 100 µM
TGI (RPMI-8226 leukemia): > 100 µM
TGI (RXF 393 renal): > 100 µM
TGI (SF-268 CNS): > 100 µM
TGI (SF-295 CNS): > 100 µM
TGI (SF-539 CNS): > 100 µM
TGI (SK-MEL-2 melanoma): > 100 µM
TGI (SK-MEL-28 melanoma): > 100 µM
TGI (SK-MEL-5 melanoma): > 100 µM
TGI (SK-OV-3 ovarian): > 100 µM
TGI (SN12C renal): > 100 µM
TGI (SNB-19 CNS): > 100 µM
TGI (SNB-75 CNS): > 100 µM
TGI (SR leukemia): > 100 µM
TGI (SW-620 colon): > 100 µM
TGI (T-47D breast): > 100 µM
TGI (TK-10 renal): > 100 µM
TGI (U251 CNS): > 100 µM
TGI (UACC-257 melanoma): > 100 µM
TGI (UACC-62 melanoma): > 100 µM
TGI (UO-31 renal): > 100 µM

COCc1nc2c(OC)cc(-c3nc4nc(N5CCN(C)CC5)ccc4[nH]3)c(OC)c2[nH]1
TGI (786-0 renal): > 100 µM
TGI (A498 renal): > 100 µM
TGI (A549 NSCLC): > 100 µM
TGI (ACHN renal): > 100 µM
TGI (BT-549 breast): > 100 µM
TGI (CAKI-1 renal): > 100 µM
TGI (CCRF-CEM leukemia): 75.9 µM
TGI (COLO 205 colon): > 100 µM
TGI (DU-145 prostate): > 100 µM
TGI (EKVX NSCLC): > 100 µM
TGI (HCC-2998 colon): > 100 µM
TGI (HCT-116 colon): > 100 µM
TGI (HCT-15 colon): > 100 µM
TGI (HL-60(TB) leukemia): > 100 µM
TGI (HOP-62 NSCLC): > 100 µM
TGI (HOP-92 NSCLC): > 100 µM
TGI (HS 578T breast): > 100 µM
TGI (HT29 colon): > 100 µM
TGI (IGROV1 ovarian): > 100 µM
TGI (K-562 leukemia): > 100 µM
TGI (KM12 colon): > 100 µM
TGI (LOX IMVI melanoma): > 100 µM
TGI (M14 melanoma): 42.4 µM
TGI (MALME-3M melanoma): 44.2 µM
TGI (MCF7 breast): > 100 µM
TGI (MDA-MB-231 breast): > 100 µM
TGI (MDA-MB-435): > 100 µM
TGI (MDA-N): > 100 µM
TGI (MOLT-4 leukemia): > 100 µM
TGI (NCI-H226 lung): > 100 µM
TGI (NCI-H23 lung): > 100 µM
TGI (NCI-H460 lung): > 100 µM
TGI (NCI-H522 lung): > 100 µM
TGI (NCI/ADR-RES ovarian): > 100 µM
TGI (OVCAR-3 ovarian): 83 µM
TGI (OVCAR-4 ovarian): > 100 µM
TGI (OVCAR-5 ovarian): > 100 µM
TGI (OVCAR-8 ovarian): > 100 µM
TGI (PC-3 prostate): > 100 µM
TGI (RXF 393 renal): > 100 µM
TGI (SF-268 CNS): > 100 µM
TGI (SF-295 CNS): > 100 µM
TGI (SK-MEL-28 melanoma): > 100 µM
TGI (SK-MEL-5 melanoma): 38.8 µM
TGI (SK-OV-3 ovarian): > 100 µM
TGI (SN12C renal): > 100 µM
TGI (SNB-19 CNS): > 100 µM
TGI (SNB-75 CNS): > 100 µM
TGI (SR leukemia): > 100 µM
TGI (SW-620 colon): > 100 µM
TGI (T-47D breast): > 100 µM
TGI (TK-10 renal): > 100 µM
TGI (U251 CNS): > 100 µM
TGI (UACC-257 melanoma): 61 µM
TGI (UACC-62 melanoma): > 100 µM
TGI (UO-31 renal): > 100 µM

Reference: PubChem BioAssay (NCI)
